Active and inactive are the calls of the source.
Assays:
[1] = molecular target: Serine/threonine-protein kinase Chk1 (Homo sapiens, UniProt O14757); format: functional;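 note: measured as one member of a kinome-wide kinase profiling panel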
[2] = molecular target: Serine/threonine-protein kinase Nek2 (Homo sapiens, UniProt P51955); format: functional
[3] = molecular target: T1, Lysine-specific demethylase 4C (Homo sapiens, UniProt Q9H3R0); assay: inhibition of JMJD2C H3K9me3 demethylation – biochemical, DELFIA europium, cherry-picked samples, dose response (AID 488835); format: functional
T1 sequence (Q9H3R0 whole entry): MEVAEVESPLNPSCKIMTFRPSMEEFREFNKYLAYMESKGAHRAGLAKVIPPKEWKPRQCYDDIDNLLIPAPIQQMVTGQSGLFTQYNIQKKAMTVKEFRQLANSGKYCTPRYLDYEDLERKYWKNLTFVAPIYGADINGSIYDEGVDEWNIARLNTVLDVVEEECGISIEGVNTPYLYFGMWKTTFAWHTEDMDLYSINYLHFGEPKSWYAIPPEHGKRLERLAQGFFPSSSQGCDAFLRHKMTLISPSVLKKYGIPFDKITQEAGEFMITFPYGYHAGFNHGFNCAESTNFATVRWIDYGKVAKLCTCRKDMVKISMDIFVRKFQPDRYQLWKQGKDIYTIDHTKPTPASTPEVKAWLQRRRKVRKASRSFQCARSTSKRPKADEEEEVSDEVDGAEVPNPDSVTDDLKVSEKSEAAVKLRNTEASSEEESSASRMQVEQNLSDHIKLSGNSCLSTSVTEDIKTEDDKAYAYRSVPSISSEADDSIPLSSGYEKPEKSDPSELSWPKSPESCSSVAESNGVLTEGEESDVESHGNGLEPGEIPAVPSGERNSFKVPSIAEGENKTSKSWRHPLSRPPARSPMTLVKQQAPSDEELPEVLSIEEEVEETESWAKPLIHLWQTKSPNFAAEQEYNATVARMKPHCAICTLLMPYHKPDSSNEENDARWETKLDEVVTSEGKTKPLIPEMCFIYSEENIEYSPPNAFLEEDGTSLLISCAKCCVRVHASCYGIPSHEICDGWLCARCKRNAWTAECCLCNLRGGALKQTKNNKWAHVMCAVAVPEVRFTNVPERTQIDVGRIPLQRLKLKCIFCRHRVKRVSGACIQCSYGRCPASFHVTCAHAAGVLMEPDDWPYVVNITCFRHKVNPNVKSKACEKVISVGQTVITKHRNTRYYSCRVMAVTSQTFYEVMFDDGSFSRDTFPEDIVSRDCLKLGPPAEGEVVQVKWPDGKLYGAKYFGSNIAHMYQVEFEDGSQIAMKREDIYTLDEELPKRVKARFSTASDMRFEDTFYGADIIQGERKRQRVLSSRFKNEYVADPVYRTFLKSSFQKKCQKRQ

[4] = molecular target: Tyrosyl-DNA phosphodiesterase 2 (Homo sapiens, UniProt O95551); assay: potency against TDP2 phosphodiesterase activity – biochemical, epi absorbance, IC50, dose response (AID 743297)
Tyrosyl-DNA phosphodiesterase 2, sequence (O95551 whole entry): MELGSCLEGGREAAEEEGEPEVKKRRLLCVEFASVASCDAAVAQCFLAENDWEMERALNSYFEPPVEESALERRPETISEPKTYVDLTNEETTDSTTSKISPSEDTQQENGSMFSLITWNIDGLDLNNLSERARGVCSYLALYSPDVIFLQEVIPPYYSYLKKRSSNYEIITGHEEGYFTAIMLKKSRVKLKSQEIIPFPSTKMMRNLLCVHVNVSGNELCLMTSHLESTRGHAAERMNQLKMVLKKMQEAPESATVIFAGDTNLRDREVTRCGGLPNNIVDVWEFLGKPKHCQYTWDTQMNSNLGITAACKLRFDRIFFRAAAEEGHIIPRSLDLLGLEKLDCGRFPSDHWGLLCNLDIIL

P388 = assay: cells; format: functional; settings: Mus musculus;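 note: compound exposure lasted 48 hours before growth was measured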
[5] = DRD fibroblast viability loss – cell-based, non-viral oncogenic, luminescence, dose response (AID 1934); format: functional; settings: Homo sapiens
[6] = M. tuberculosis H37Rv growth inhibitors, H37Rv strain (AID 1626); format: functional
BJ [7] = assay: cells; format: functional, cell-based; settings: Homo sapiens
BJ [8] = assay: BJ-TERT fibroblast viability loss – cell-based, RAS-independent, luminescence, dose response (AID 1933); format: functional; settings: Homo sapiens
[9] = HIV-1 AD8 envelope cell-cell fusion blockers – cherry-pick, dose response (AID 652062); format: functional, cell-based;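 note: luciferase signal from cell-cell fusion driven by HIV-1 clade B AD8 Env; potency is for inhibitors of fusion seen as a drop in luminescence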
[10] = molecular target: Dual specificity tyrosine-phosphorylation-regulated kinase 1A (Rattus norvegicus, UniProt Q63470); format: biochemical, Homo sapiens
Genome polyprotein = Genome polyprotein (dengue virus type 2, UniProt P29990); assay: flavivirus cap methylation enzyme inhibition – biochemical, confirmation dose response, primary screen (AID 588689); format: functional
Genome polyprotein, sequence (P29990 2492-3391 limits assumed): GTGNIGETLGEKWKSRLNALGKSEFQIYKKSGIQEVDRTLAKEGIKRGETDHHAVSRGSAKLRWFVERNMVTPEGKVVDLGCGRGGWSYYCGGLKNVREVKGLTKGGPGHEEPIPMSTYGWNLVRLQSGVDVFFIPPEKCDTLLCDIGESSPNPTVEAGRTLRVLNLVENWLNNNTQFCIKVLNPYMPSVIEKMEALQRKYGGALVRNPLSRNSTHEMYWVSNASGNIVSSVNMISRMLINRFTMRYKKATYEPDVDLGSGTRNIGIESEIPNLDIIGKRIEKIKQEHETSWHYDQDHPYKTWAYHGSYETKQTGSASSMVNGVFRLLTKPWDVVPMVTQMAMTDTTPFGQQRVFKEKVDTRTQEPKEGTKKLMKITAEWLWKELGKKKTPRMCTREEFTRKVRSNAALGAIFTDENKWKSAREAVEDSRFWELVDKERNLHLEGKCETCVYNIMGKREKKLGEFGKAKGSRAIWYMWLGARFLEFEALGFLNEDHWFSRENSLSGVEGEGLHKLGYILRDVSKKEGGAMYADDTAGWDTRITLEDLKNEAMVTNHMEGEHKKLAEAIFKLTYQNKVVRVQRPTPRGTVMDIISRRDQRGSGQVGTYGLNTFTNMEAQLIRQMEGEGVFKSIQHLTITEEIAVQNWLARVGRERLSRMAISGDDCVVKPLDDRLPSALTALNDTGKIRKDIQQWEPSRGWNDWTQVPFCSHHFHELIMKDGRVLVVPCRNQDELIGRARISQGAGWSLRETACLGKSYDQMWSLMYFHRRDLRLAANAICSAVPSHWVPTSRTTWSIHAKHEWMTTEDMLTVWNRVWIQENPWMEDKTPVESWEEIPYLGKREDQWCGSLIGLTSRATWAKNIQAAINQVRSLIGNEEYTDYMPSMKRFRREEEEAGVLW

[11] = system: Streptococcus sp. 'group A'; assay: Streptococcus pyogenes SK(-)GAS viability under kanamycin – luminescence, BacTiterGlo, confirmation, counter-screen for streptokinase expression inhibitor project, dose response (AID 1900); format: functional, organism-based
[12] = off-target signal loss in HeLa-CEM21 co-culture – HeLa F-luc CTL cells, cherry-picked, counter-screen for HIV-1 Env fusion inhibitor project, dose response (AID 652040); format: functional, cell-based;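 note: potency for signal decrease marking cytotoxic or nonspecific inhibition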
[13] = molecular target: T2, Heat shock factor protein 1 (Mus musculus, UniProt P38532); assay: decrease of HSF1-responsive luciferase luminescence – cell-based, NIH3T3, dose retest, confirmation (AID 2382); format: functional;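 note: NIH3T3 fibroblasts with HSF1-driven luciferase reporter stressed by proteasome inhibitor MG132; luminescence from HSF1-driven luciferase expression after 8 hours of MG132 stress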
T2 sequence (P38532 whole entry): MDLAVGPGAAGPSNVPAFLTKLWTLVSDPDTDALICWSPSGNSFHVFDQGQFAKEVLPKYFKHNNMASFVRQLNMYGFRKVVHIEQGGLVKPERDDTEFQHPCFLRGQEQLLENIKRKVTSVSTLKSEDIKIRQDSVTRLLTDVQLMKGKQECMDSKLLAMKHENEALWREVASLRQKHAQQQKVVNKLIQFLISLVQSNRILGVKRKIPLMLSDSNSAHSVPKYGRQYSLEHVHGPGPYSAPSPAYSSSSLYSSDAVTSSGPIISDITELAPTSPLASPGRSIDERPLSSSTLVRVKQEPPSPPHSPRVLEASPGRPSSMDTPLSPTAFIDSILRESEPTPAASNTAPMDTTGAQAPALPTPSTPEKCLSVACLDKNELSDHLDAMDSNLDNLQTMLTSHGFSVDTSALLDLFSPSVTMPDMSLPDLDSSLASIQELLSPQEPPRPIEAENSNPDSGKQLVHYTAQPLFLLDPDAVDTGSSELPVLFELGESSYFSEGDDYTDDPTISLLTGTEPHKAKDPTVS

[14] = molecular target: Mitochondrial peptide methionine sulfoxide reductase (Bos taurus, UniProt P54149); format: functional;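 note: absorbance read-out, biochemical high-throughput dose-response screen for MsrA inhibitors, confirmatory; recombinant bovine MsrA coupled to E. coli TrxB with NADPH and selenocystamine; potency is for inhibitors of MsrA activity on DMSO substrate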
Mitochondrial peptide methionine sulfoxide reductase, sequence (P54149 whole entry, the tested form may be a part): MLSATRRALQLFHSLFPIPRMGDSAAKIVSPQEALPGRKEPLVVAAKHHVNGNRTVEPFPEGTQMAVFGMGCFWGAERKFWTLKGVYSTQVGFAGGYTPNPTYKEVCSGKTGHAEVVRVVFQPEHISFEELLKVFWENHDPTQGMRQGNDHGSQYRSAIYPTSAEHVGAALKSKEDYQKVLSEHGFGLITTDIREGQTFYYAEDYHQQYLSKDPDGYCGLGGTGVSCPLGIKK

[15] = viability loss in CEM21 cells – cell-based, CellTiter-Glo luminescence, cherry-picked, cytotoxicity control for viral fusion inhibitor project, dose response (AID 652042); format: functional;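 note: potency for signal decrease meaning cytotoxicity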
Streptococcus = assay: GAS UMAA2166 growth inhibition – luminescence, BacTiterGlo, counter-screen for streptokinase expression inhibitor project, dose response (AID 1915); format: functional, organism-based;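 note: potency for reduction of bacterial viability or growth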
[16] = Intein inhibitors as potential Tuberculosis drugs, a cytotoxicity screen. [Related pubchem assays (depositor defined):AID2221, AID2223, AID434968, AID435010, AID449749, AID449750, AID489010]; format: functional
[17] = molecular target: MAP/microtubule affinity-regulating kinase 3 (Homo sapiens, UniProt P27448); format: functional;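 note: MARK3 affinity measured as one member of a kinome panel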
MAP/microtubule affinity-regulating kinase 3, sequence (P27448 whole entry): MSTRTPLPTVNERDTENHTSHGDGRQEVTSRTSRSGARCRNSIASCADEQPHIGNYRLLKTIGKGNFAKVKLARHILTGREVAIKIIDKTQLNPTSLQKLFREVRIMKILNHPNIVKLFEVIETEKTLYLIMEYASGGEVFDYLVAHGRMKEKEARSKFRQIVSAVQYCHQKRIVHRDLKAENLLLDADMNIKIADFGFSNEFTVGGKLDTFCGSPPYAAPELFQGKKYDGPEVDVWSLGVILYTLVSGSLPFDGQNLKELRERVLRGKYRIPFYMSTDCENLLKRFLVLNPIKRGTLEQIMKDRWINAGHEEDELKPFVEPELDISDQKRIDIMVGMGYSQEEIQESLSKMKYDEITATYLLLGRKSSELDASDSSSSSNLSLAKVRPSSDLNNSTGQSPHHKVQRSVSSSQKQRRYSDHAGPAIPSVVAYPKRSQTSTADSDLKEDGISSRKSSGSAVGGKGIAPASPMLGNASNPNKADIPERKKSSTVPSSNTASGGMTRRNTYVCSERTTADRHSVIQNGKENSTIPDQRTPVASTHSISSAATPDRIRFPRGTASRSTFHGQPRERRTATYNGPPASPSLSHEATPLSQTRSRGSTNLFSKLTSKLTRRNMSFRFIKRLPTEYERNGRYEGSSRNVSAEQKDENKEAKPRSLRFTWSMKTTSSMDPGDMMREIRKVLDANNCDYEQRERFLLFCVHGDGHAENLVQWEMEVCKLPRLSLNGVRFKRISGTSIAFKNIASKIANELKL

[18] = molecular target: Rho-associated protein kinase 2 (Homo sapiens, UniProt O75116); format: functional
Rho-associated protein kinase 2, sequence (O75116 whole entry): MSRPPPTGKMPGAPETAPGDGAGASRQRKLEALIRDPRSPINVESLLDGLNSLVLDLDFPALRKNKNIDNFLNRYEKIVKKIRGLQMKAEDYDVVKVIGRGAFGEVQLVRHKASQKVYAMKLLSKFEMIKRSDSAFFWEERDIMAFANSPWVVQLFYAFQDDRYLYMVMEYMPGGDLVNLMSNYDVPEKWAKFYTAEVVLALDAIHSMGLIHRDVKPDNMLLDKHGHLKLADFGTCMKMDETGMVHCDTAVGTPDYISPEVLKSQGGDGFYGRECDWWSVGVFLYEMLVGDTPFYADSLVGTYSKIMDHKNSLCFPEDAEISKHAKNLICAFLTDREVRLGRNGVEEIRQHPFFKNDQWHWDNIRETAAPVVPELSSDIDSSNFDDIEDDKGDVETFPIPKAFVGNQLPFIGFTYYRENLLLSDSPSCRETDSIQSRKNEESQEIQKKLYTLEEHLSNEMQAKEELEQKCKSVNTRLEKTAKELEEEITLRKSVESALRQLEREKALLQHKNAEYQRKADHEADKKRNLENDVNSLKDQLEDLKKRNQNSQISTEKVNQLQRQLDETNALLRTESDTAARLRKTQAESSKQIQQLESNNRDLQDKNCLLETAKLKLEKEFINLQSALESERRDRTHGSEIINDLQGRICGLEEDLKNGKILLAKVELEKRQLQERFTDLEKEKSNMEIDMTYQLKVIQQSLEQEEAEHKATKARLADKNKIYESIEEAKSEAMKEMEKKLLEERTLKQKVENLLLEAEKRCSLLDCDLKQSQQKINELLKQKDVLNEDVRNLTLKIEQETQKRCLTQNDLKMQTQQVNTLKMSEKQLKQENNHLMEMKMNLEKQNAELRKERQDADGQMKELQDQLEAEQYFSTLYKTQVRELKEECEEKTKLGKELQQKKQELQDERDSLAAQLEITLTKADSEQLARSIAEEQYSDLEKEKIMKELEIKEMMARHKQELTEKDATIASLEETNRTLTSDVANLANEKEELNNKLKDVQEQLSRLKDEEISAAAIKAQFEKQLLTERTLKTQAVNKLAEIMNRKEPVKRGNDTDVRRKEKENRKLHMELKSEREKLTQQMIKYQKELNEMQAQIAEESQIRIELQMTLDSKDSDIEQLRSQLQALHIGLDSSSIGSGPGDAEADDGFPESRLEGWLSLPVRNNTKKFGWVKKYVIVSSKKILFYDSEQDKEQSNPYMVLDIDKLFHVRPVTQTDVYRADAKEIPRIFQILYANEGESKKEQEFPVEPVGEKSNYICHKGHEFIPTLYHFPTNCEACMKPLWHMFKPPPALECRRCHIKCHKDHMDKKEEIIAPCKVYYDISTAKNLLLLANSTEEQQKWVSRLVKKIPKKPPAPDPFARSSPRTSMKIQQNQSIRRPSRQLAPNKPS

[19] = molecular target: Mitogen-activated protein kinase 10 (Homo sapiens, UniProt P53779); assay: Navigating the Kinome. Panel member name: MAPK10; format: functional
Mitogen-activated protein kinase 10, sequence (P53779 whole entry): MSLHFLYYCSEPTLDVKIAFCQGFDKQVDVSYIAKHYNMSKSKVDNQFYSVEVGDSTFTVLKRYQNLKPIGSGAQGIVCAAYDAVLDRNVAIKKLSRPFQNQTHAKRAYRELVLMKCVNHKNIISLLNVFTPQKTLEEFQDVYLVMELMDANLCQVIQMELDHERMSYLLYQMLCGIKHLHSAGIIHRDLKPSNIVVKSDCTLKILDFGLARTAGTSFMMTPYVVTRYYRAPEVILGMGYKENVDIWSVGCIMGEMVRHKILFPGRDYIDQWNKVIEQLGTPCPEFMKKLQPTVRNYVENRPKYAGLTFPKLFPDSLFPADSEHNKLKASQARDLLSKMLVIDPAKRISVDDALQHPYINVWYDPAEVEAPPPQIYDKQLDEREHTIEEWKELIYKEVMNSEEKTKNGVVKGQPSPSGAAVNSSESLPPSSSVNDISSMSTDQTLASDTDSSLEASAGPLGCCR

[20] = molecular target: Mast/stem cell growth factor receptor Kit (Homo sapiens, UniProt P10721); format: functional;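 note: KIT entry within a kinase panel assay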
Mast/stem cell growth factor receptor Kit, sequence (P10721 whole entry): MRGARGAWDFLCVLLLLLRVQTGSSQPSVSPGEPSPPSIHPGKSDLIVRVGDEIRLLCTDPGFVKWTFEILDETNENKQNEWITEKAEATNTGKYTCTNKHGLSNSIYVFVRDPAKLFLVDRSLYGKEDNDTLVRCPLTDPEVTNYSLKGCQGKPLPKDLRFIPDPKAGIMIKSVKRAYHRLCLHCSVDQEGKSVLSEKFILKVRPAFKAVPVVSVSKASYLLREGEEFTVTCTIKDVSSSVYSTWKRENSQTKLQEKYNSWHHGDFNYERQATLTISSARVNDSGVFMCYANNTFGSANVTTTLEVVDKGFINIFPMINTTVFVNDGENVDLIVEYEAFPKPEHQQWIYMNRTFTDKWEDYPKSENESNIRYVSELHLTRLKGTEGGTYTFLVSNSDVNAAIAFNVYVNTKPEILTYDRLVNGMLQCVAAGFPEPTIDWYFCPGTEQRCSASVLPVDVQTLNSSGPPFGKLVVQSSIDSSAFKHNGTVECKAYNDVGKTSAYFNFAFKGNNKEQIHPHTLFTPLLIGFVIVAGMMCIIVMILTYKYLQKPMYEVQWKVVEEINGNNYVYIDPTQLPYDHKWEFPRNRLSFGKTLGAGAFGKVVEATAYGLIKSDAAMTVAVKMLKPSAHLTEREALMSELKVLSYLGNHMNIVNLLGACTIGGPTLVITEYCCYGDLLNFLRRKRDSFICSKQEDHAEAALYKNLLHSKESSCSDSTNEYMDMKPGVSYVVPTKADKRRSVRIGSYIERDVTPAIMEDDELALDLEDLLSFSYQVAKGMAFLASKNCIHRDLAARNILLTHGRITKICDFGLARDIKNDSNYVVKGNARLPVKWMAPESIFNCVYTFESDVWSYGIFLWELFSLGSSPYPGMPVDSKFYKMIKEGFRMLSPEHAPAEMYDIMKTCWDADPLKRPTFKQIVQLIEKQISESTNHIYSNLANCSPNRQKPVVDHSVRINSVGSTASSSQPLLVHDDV
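Throughout, for CC50: cells exposed to compound for 72 hours before luminescence readout.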

**Q.** Which Ki [1] does the source give for `O=C(Nc1cccc(C(F)(F)F)n1)Nc1ccnc2cc(OC(F)F)ccc12` here?
**A.** > 3.16 µM (inactive)

**Q.** And the Ki [2]?
**A.** > 3.16 µM (inactive)

**Q.** What does the source list for `O=C(Cc1ccccc1)NC1(O)C(=O)c2ccccc2C1=O`?
**A.** AC50 [3]: 5.55 µM (active); IC50 [4]: 13.2 µM (inactive)

**Q.** Which GI50 (P388) does the source give for `COC(=O)c1nc(-c2ccc3c(n2)C(=O)C(=N)C(OC)=C3O)c(N)c(-c2ccc(OC)c(OC)c2O)c1C` here?
**A.** 1.49 µM (inactive)

**Q.** And the EC50 [5]?
**A.** 13.9 µM (active)

**Q.** And the IC50 [6]?
**A.** > 100 µM (active)

**Q.** What about the EC50 (BJ [7]) of the same molecule?
**A.** 4.56 µM (active)

**Q.** What about the EC50 (BJ [8]) of the same molecule?
**A.** 5.91 µM (active)

**Q.** For `Cc1cc(C)c(S(=O)(=O)/N=C2\C=C(Nc3ccc(C(=O)O)cc3)C(=O)c3ccccc32)c(C)c1`, which AC50 [9] is on record?
**A.** 9.55 µM (active)

**Q.** And the AC50 [10]?
**A.** 1.8 µM (active)

**Q.** What about the IC50 (Genome polyprotein) of the same molecule?
**A.** 21.2 µM (active)

**Q.** And the EC50 [11]?
**A.** 561 nM (active)

**Q.** And the AC50 [12]?
**A.** 17.2 µM (active)

**Q.** And the EC50 [13]?
**A.** 6.73 µM (active)

**Q.** What about the IC50 [14] of the same molecule?
**A.** 44.8 µM (inactive)

**Q.** What about the AC50 [15] of the same molecule?
**A.** 9.3 µM (active)

**Q.** And the EC50 (Streptococcus)?
**A.** 2.6 µM (active)

**Q.** What about the CC50 [16] of the same molecule?
**A.** 7.89 µM (active)

**Q.** With `CCC1CC(NS(=O)(=O)C2CC2)CC1c1ncc2cnc3[nH]ccc3n12` (stereo not drawn) as the molecule, how does the Ki [17] read?
**A.** 158 nM (active)

**Q.** What about the Ki [18] of the same molecule?
**A.** 12.6 nM (active)

**Q.** What about the Ki [19] of the same molecule?
**A.** > 3.16 µM (inactive)

**Q.** What about the Ki [20] of the same molecule?
**A.** > 6.31 µM (inactive)

Source: ChEMBL document CHEMBL1201862, “PubChem BioAssay data set” (2004)
